According to patent EP3118202A1, “DIHYDROPYRIDOPYRROLE DERIVATIVES AS TAU-PET-LIGANDS” (AC Immune S.A., priority 2015, dated 2017):
pIC50: −log10 of the molar value.

Columns and labels:
[1] = tested on: tau tangles/Aβ plaques on AD brain sections; experiment: Direct staining of human Alzheimer's disease brain sections (Assay 1, fluorescence based assay); type: binding; set-up: key to Direct staining of tau tangles/Aβ plaques on AD brain sections at 100 µM: - (No); +++ (strong); ++ (good); + (weak); conditions: for Direct staining of tau tangles/Aβ plaques on AD brain sections at 100 µM: 100 µM in 50% ethanol in water, 20 min, room temperature, frozen amygdala sections, Braak stage V-VI; for Direct staining of tau tangles/Aβ plaques on AD brain sections at 100 µM: structure stained: structure (tangles or plaques) that was stained
Protocol: Assay 1 (Fluorescence based assay):
Direct binding of compounds of this invention to human Alzheimer's disease brain sections
Frozen sections with a thickness of […] from the amygdala of donors diagnosed with Braak stage V-VI Alzheimer's Disease (Braak, H.; Braak, E. Acta Neuropathol., 1991, 82, 239-259), were purchased from a commercial provider (Tissue Solutions) and kept at -80°C until use.
Direct staining of human Alzheimer's disease brain sections
Brain sections were encircled with pap pen liquid blocker to reduce the volume of solution for the different incubations. Sections were fixed for 15 min at 4°C with 4% paraformaldehyde and washed three times 5 minutes with PBS at room temperature. Test compounds were incubated on the sections at 100 µM in 50% ethanol in water for 20 min at room temperature in the dark and then washed three times 5 minutes with PBS. To reduce the auto-fluorescence of the tissue, the sections were incubated in a solution of 0.1% Sudan Black (Sigma 199664) in 70% ethanol for 15 min at room temperature in the dark, washed four times for 5 minutes with PBS, and mounted using ProLong Gold Antifade reagent (Invitrogen P36930). Sections were then analyzed on the Nikon Eclipse Ti microscope to detect staining and imaged using Nikon DS-Fi2 camera and NIS-Element AR4.13.1 software.

[2] = target: T1, MAO-A human - recombinant (Homo sapiens, UniProt P21397); experiment: Monoamine oxidase A (MAO-A) assay (MAO-Glo Assay); type: biochemical; conditions: MAO substrate 40 µM; 1 hour at room temperature; read-out: MAO A binding
T1 construct: purchased Sigma-Aldrich M7316
T1 sequence (P21397 1-527): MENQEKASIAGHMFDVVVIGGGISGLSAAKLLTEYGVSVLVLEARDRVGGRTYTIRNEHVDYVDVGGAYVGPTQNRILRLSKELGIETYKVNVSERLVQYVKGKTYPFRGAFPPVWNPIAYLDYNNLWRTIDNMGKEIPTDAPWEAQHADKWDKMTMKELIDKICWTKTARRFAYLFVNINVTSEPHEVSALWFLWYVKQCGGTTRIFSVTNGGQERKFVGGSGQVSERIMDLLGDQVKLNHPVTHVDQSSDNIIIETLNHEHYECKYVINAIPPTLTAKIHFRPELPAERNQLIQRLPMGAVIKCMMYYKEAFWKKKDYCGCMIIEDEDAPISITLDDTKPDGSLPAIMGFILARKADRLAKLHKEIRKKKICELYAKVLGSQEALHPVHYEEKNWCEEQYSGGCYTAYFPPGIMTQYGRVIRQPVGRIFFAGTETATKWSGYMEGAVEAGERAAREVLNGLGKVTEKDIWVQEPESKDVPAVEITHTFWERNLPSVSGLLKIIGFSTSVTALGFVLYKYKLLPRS
Protocol: Monoamine oxidase A (MAO-A) assay
Compounds were tested for their capacity to modulate MAO-A activity within the MAO-Glo™ Assay (Promega, Cat.# V1402). In each well of a 96-well plate, 12.5 µl of 4X MAO Substrate solution (end-concentration in assay: 40 µM) were mixed with 12.5 µl of a 4X solution of the corresponding test compound (end-concentrations ranged from 10 µM to 1.37 nM). In the absence of a test compound (i.e. to gauge the total MAO-A activity), the corresponding volume of MAO Reaction Buffer (100 mM HEPES (pH 7.5), 5% glycerol) was added. To initiate the MAO reaction, 25 µl of 2X MAO-A enzyme solution (MAO-A human - recombinant, Sigma-Aldrich, Cat.# M7316; 1 µg MAO-A enzyme/25 µl MAO Reaction Buffer) were added per well and mixed briefly. For negative control reactions, 25µl of MAO Reaction Buffer were added. Thereafter the plate was incubated at room temperature for 1 hour, following which, 50 µl of reconstituted Luciferin Detection Reagent were added per well and mixed briefly. The plate was then incubated at room temperature for 20 minutes to generate and stabilize the luminescent signal. The luminescent signal was subsequently measured and recorded on the TopCountNXT™ luminescence counter (PerkinElmer). Data were analyzed and graphs were prepared using the Graphpad Prism 6 software.

[3] = target: T2, MAO-B human - recombinant (Homo sapiens, UniProt P27338); experiment: MAO-B assay (MAO-Glo Assay); type: biochemical; conditions: MAO substrate 4 µM; 1 hour at room temperature; read-out: MAO B binding
T2 construct: purchased Sigma-Aldrich M7441
T2 sequence (P27338 1-520): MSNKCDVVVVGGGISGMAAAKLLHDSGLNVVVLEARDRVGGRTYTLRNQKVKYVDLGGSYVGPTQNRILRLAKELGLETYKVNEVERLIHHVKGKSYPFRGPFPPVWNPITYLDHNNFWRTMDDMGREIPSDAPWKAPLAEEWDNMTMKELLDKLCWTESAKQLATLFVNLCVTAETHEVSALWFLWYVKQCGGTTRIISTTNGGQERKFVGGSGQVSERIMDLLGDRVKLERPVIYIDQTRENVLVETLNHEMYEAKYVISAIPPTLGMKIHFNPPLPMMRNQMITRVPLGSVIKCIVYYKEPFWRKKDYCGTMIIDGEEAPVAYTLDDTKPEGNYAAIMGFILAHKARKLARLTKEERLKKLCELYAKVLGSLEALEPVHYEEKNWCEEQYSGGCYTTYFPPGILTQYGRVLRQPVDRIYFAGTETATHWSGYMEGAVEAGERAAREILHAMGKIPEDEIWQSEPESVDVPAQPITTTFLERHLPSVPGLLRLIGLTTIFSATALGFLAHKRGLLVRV
Protocol: Compounds were tested for their capacity to modulate MAO-B activity within the MAO-Glo™ Assay (Promega, Cat.# V1402). In each well of a 96-well plate, 12.5 µl of 4X MAO Substrate solution (end-concentration in assay: 4 µM) were mixed with 12.5 µl of a 4X solution of the corresponding test compound (end-concentrations ranged from 10 µM to 1.37 nM). In the absence of a test compound (i.e. to gauge the total MAO-B activity), the corresponding volume of MAO-B Reaction Buffer (100 mM HEPES (pH 7.5), 5% glycerol, 10% dimethyl sulphoxide) was added. To initiate the MAO reaction, 25 µl of 2X MAO-B enzyme solution (MAO-B human - recombinant, Sigma-Aldrich, Cat.# M7441; 1 µg MAO-B enzyme/25 µl MAO-B Reaction Buffer) were added per well and mixed briefly. For negative control reactions, 25µl of MAO-B Reaction Buffer were added. Thereafter the plate was incubated at room temperature for 1 hour, following which, 50 µl of reconstituted Luciferin Detection Reagent were added per well and mixed briefly. The plate was then incubated at room temperature for 20 minutes to generate and stabilize the luminescent signal. The luminescent signal was subsequently measured and recorded on the TopCountNXT™ luminescence counter (PerkinElmer). Data were analyzed and graphs were prepared using the Graphpad Prism 6 software.

Row | pIC50 [2] | pIC50 [3] | Structure (SMILES) | Direct staining of tau tangles/Aβ plaques on AD brain sections at 100 µM [1] | Direct staining of tau tangles/Aβ plaques on AD brain sections at 100 µM: structure stained [1]
1 |  |  | CCn1c2ccncc2c2ccc(N3CCC(OCCF)CC3)nc21 [Example 1] | - | 
2 |  |  | CN(CCF)C1CCN(c2ccc3c4cnccc4n(C)c3n2)CC1 [Example 3] | - | 
3 | 6.37 | < 6.00 | Cn1c2ccncc2c2ccc(N3CCC(OCC(O)CF)CC3)nc21 (stereo not drawn) [Example 5] | ++ | (tangles)
4 |  |  | CCn1c2ccncc2c2ccc(N3CCC(OCC(O)CF)CC3)nc21 (stereo not drawn) [Example 6] | ++ | (tangles)
5 | 6.10 | < 6.00 | OC(CF)COC1CCN(c2ccc3c(n2)[nH]c2ccncc23)CC1 (stereo not drawn) [Example 10] |  | 
6 | 6.03 | < 6.00 | Cn1c2ccncc2c2ccc(N3CCN(CC(O)CF)CC3)nc21 (stereo not drawn) [Example 12] | + | (tangles)
7 |  |  | Cn1c2ccncc2c2ccc(N3CC4CC(C3)C4OCCF)nc21 (stereo not drawn) [Example 13] | ++ | (tangles)
8 |  |  | Cn1c2ccncc2c2ccc(N3CCC(COCCF)CC3)nc21 [Example 14] | - | 
9 |  |  | Cn1c2ccncc2c2ccc(N3CCOC(CCF)C3)nc21 (stereo not drawn) [Example 16] | - | 
